Data published in ChEMBL document CHEMBL4831492, “Design and synthesis of 2-(2-isonicotinoylhydrazineylidene)propanamides as InhA inhibitors with high antitubercular activity” (Eur J Med Chem, 2021).
In brackets after ≈: the same amount, converted by molar mass. Activity calls are given as the source filed them. The rule behind the calls is not given here.

Experiments:
[1] = tested on: Mycobacterium kansasii; assay: Antimycobacterial activity against drug resistant Mycobacterium kansasii 6509/96 assessed as minimal inhibitory concentration required for complete inhibition of mycobacterial growth incubated for 7 days; type: functional; settings: 6509/96, 168 h, time 7 day
[2] = tested on: Mycobacterium avium; assay: Antimycobacterial activity against drug resistant Mycobacterium avium 330/88 assessed as inhibition of mycobacterial growth at 250 uM incubated for 21 days; type: functional, organism-based; settings: time 21.0 day
[3] = tested on: Mycobacterium kansasii; assay: Antimycobacterial activity against drug resistant Mycobacterium kansasii 6509/96 assessed as minimal inhibitory concentration required for complete inhibition of mycobacterial growth incubated for 21 days; type: functional; settings: 6509/96, 504 h, time 21 day
[4] = tested on: Mycobacterium avium; assay: Antimycobacterial activity against drug resistant Mycobacterium avium 330/88 assessed as inhibition of mycobacterial growth at 250 uM incubated for 14 days; type: functional, organism-based; settings: time 14.0 day
[5] = tested on: Mycobacterium tuberculosis; assay: Antimycobacterial activity against drug susceptible Mycobacterium tuberculosis H37Rv assessed as minimal inhibitory concentration required for complete inhibition of mycobacterial growth incubated for 21 days; type: functional; settings: 504 h, time 21 day
[6] = tested on: Mycobacterium kansasii; assay: Antimycobacterial activity against drug resistant Mycobacterium kansasii 6509/96 assessed as minimal inhibitory concentration required for complete inhibition of mycobacterial growth incubated for 14 days; type: functional; settings: 6509/96, 336 h, time 14 day
[7] = tested on: Mycobacterium tuberculosis; assay: Antimycobacterial activity against drug susceptible Mycobacterium tuberculosis H37Rv assessed as minimal inhibitory concentration required for complete inhibition of mycobacterial growth incubated for 14 days; type: functional; settings: 336 h, time 14 day
[8] = tested on: Mycobacterium avium; assay: Antimycobacterial activity against drug resistant Mycobacterium avium 330/88 assessed as inhibition of mycobacterial growth at 500 uM incubated for 14 days; type: functional, organism-based; settings: time 14.0 day
[9] = tested on: Mycobacterium avium; assay: Antimycobacterial activity against drug resistant Mycobacterium avium 330/88 assessed as inhibition of mycobacterial growth at 500 uM incubated for 21 days; type: functional, organism-based; settings: time 21.0 day
[10] = tested on: Mycobacterium avium; assay: Antimycobacterial activity against drug resistant Mycobacterium avium 330/88 assessed as minimal inhibitory concentration required for complete inhibition of mycobacterial growth incubated for 14 days; type: functional; settings: 330/88, 336 h, time 14 day
[11] = tested on: Mycobacterium avium; assay: Antimycobacterial activity against drug resistant Mycobacterium avium 330/88 assessed as minimal inhibitory concentration required for complete inhibition of mycobacterial growth incubated for 21 days; type: functional; settings: 330/88, 504 h, time 21 day
[12] = tested on: HepG2; assay: Cytotoxicity against human HepG2 cells assessed as reduction in cell viability incubated overnight followed by compound washout by MTT assay; type: cell-based
[13] = tested on: HepG2; assay: Cytostatic activity in human HepG2 cells assessed as reduction in cell viability incubated overnight followed by compound washout and further incubated for 72 hrs in medium containing serum by MTT assay; type: functional, cell-based; settings: HepG2, 72 h
[14] = Selectivity index, ratio of CC50 for cytotoxicity against human HepG2 cells to MIC for antimycobacterial activity against drug susceptible Mycobacterium tuberculosis H37Rv; type: toxicity, cell-based; settings: read-out: Selectivity Index
[15] = tested on: Mycobacterium kansasii; assay: Antimycobacterial activity against drug resistant Mycobacterium kansasii 235/80 assessed as minimal inhibitory concentration required for complete inhibition of mycobacterial growth incubated for 21 days; type: functional; settings: 235/80, 504 h, time 21 day
[16] = tested on: Mycobacterium kansasii; assay: Antimycobacterial activity against drug resistant Mycobacterium kansasii 235/80 assessed as minimal inhibitory concentration required for complete inhibition of mycobacterial growth incubated for 14 days; type: functional; settings: 235/80, 336 h, time 14 day
[17] = tested on: Mycobacterium kansasii; assay: Antimycobacterial activity against drug resistant Mycobacterium kansasii 235/80 assessed as minimal inhibitory concentration required for complete inhibition of mycobacterial growth incubated for 7 days; type: functional; settings: 235/80, 168 h, time 7 day
[18] = Selectivity index, ratio of CC50 for cytotoxicity against human HepG2 cells to MIC for antimycobacterial activity against drug susceptible Mycobacterium […]; type: toxicity, cell-based; settings: read-out: Selectivity Index

Compound | MIC [1] [µM] | Activity [2] | MIC [3] [µM] | Activity [4] | MIC [5] [µM] | MIC [6] [µM] | MIC [7] [µM] | Activity [8] | Activity [9] | MIC [10] [µM] | MIC [11] [µM] | IC50 [12] [µM] | IC50 [13] [µM] | selectivity ratio [14] | MIC [15] [µM] | MIC [16] [µM] | MIC [17] [µM] | selectivity ratio [18]
C/C(=N\NC(=O)c1ccncc1)C(=O)Nc1ccc(SC(F)(F)F)cc1 | 4 (≈ 1.53 µg/mL) | inactive | 4 (≈ 1.53 µg/mL) | inactive | 0.5 (≈ 0.191 µg/mL) | 4 (≈ 1.53 µg/mL) | 0.5 (≈ 0.191 µg/mL) | – | – | – | – | – | – | – | – | – | – | –
C/C(=N\NC(=O)c1ccncc1)C(=O)Nc1ccc(F)c(F)c1 | 2 (≈ 0.637 µg/mL) | – | 8 (≈ 2.55 µg/mL) | – | 0.5 (≈ 0.159 µg/mL) | 4 (≈ 1.27 µg/mL) | 0.25 (≈ 0.0796 µg/mL) | inactive | inactive | – | – | – | – | – | – | – | – | –
C/C(=N\NC(=O)c1ccncc1)C(=O)Nc1ccc(OC(F)F)cc1 | 2 (≈ 0.697 µg/mL) | – | 8 (≈ 2.79 µg/mL) | – | 0.5 (≈ 0.174 µg/mL) | 4 (≈ 1.39 µg/mL) | 0.25 (≈ 0.0871 µg/mL) | – | – | > 1000 | > 1000 | – | – | – | – | – | – | –
C/C(=N\NC(=O)c1ccncc1)C(=O)Nc1ccc(F)cc1 | 2 (≈ 0.601 µg/mL) | – | 8 (≈ 2.4 µg/mL) | – | 0.25 (≈ 0.0751 µg/mL) | 4 (≈ 1.2 µg/mL) | 0.25 (≈ 0.0751 µg/mL) | – | – | > 250 | > 250 | > 50 | > 50 | > 200 | 250 (≈ 75.1 µg/mL) | 125 (≈ 37.5 µg/mL) | 62.5 (≈ 18.8 µg/mL) | > 625
C/C(=N\NC(=O)c1ccncc1)C(=O)O [PYRUVIC ACID ISONIAZID] | 8 (≈ 1.66 µg/mL) | – | 16 (≈ 3.32 µg/mL) | – | 1 (≈ 0.207 µg/mL) | 16 (≈ 3.32 µg/mL) | 1 (≈ 0.207 µg/mL) | – | – | 500 (≈ 104 µg/mL) | > 1000 | > 50 | > 50 | > 50 | 16 (≈ 3.32 µg/mL) | 16 (≈ 3.32 µg/mL) | 8 (≈ 1.66 µg/mL) | > 3.12
C/C(=N\NC(=O)c1ccncc1)C(=O)Nc1cccc(C(F)(F)F)c1 | 2 (≈ 0.701 µg/mL) | – | 8 (≈ 2.8 µg/mL) | – | 0.25 (≈ 0.0876 µg/mL) | 4 (≈ 1.4 µg/mL) | 0.125 (≈ 0.0438 µg/mL) | – | – | > 1000 | > 1000 | – | – | – | – | – | – | –
C/C(=N\NC(=O)c1ccncc1)C(=O)Nc1cccc(I)c1 | 4 (≈ 1.63 µg/mL) | – | 8 (≈ 3.27 µg/mL) | – | 0.5 (≈ 0.204 µg/mL) | 8 (≈ 3.27 µg/mL) | 0.125 (≈ 0.051 µg/mL) | – | – | > 1000 | > 1000 | – | – | – | – | – | – | –
C/C(=N\NC(=O)c1ccncc1)C(=O)Nc1ccc(C(F)(F)C(F)(F)C(F)(F)C(F)(F)C(F)(F)C(F)(F)C(F)(F)C(F)(F)F)cc1 | > 1000 | – | > 1000 | – | 0.5 (≈ 0.35 µg/mL) | > 1000 | 0.25 (≈ 0.175 µg/mL) | – | – | > 1000 | > 1000 | – | – | – | – | – | – | –
C/C(=N\NC(=O)c1ccncc1)C(=O)Nc1cc(C(F)(F)F)cc(C(F)(F)F)c1 | 32 (≈ 13.4 µg/mL) | – | 32 (≈ 13.4 µg/mL) | – | 1 (≈ 0.418 µg/mL) | 32 (≈ 13.4 µg/mL) | 1 (≈ 0.418 µg/mL) | – | – | > 1000 | > 1000 | – | – | – | – | – | – | –
C/C(=N\NC(=O)c1ccncc1)C(=O)Nc1ccc(Cl)cc1 | 4 (≈ 1.27 µg/mL) | – | 16 (≈ 5.07 µg/mL) | – | 0.25 (≈ 0.0792 µg/mL) | 8 (≈ 2.53 µg/mL) | 0.25 (≈ 0.0792 µg/mL) | – | – | 250 (≈ 79.2 µg/mL) | 250 (≈ 79.2 µg/mL) | > 50 | > 50 | > 200 | 16 (≈ 5.07 µg/mL) | 16 (≈ 5.07 µg/mL) | 16 (≈ 5.07 µg/mL) | > 3.12
